What follows are molecules tested against Prostaglandin E2 receptor EP2 subtype (Homo sapiens, UniProt P43116) (assay: Binding Assay: Measurement of EP2 receptor binding affinity was carried out according to the method of Abramovitz et al. (Biochimica et Biophysica Acta, 1483, 285 (2000)). […] The membrane fraction was recovered on glass fiber filter paper (GF/B, available from Whatman PLC) using a cell harvester (M30R, available from Brandel Inc.), and after washing with a buffer solution (10 mM MES-KOH (pH 6.0), 10 mM MgCl2), radioactivity was measured with a liquid scintillation analyzer (2000CA, available from Packard).). Conditions: hek293.
Sequence of Prostaglandin E2 receptor EP2 subtype (P43116 whole entry): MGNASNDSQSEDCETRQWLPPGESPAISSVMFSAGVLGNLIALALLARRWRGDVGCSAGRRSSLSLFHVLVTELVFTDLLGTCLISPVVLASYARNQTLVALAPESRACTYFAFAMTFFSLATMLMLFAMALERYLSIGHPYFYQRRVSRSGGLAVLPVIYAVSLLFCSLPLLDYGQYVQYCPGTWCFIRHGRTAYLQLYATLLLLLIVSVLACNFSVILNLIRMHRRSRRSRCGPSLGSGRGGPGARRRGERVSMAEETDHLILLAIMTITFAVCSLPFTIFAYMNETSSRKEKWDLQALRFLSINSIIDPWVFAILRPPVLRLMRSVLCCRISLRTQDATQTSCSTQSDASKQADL
Assay type: cell membranes

Structure (SMILES)	Ki [nM]
O=C(O)c1[nH]c(-c2ccoc2)cc1-c1ccc(O)cc1	2.8
COC(=O)c1ccc(CNC(=O)c2[nH]c(-c3cccs3)cc2-c2ccc(F)cc2)nc1	3.8
O=C(NO)c1ccc(CNC(=O)c2[nH]c(-c3ccoc3)cc2-c2ccc(F)cc2)cc1	1.1
O=C(NO)c1ccc(CNC(=O)c2[nH]c(-c3cccs3)cc2-c2ccc(O)cc2)cc1	13
O=C(NO)c1ccc(CNC(=O)c2[nH]c(-c3ccc(O)cc3)cc2-c2ccoc2)cc1	9.4
COc1ccc(-c2cc(-c3ccccc3)[nH]c2C(=O)Nc2ccc(C(=O)NO)o2)cc1	3.1
O=C(NO)c1ccc(CNC(=O)c2[nH]c(-c3ccccc3)cc2-c2ccc(F)cc2)o1	1.5
